Source: ChEMBL document CHEMBL5370531, “Design, synthesis and pharmacological evaluation of 2,3-dihydrobenzofuran IRAK4 inhibitors for the treatment of diffuse large B-cell lymphoma” (Eur J Med Chem, 2023)
pIC50: −log10 of the molar value.

Key:
[1] = target: T1, Interleukin-1 receptor-associated kinase 4 (Homo sapiens, UniProt Q9NWZ3); experiment: Inhibition of IRAK4 (unknown origin) by Z-LYTE enzymatic kinase assay
T1 sequence (Q9NWZ3 whole entry): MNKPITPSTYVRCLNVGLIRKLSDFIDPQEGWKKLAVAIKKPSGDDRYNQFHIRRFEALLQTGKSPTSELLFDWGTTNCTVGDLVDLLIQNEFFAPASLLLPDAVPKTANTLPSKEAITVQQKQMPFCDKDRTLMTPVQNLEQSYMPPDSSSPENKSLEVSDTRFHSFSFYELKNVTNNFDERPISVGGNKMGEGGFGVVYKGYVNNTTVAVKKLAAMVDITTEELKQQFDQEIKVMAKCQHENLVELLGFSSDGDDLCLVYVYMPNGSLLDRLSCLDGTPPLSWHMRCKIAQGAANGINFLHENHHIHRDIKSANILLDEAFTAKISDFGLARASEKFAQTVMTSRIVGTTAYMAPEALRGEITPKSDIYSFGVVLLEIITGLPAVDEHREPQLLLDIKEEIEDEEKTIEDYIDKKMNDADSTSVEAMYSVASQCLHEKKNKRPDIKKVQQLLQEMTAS

[2] = Cytotoxicity against human GM00637 cells assessed as inhibition of cell proliferation incubated for 72 hrs by CCK-8 assay; type: toxicity, cell-based
OCI-Ly10 = experiment: Cytotoxicity against human OCILY10 cells assessed as inhibition of cell proliferation incubated for 72 hrs by CCK-8 assay; type: functional, cell-based; settings: OCI-Ly10, 72 h
U2932 = experiment: Cytotoxicity against human U2932 cells assessed as inhibition of cell proliferation incubated for 72 hrs by CCK-8 assay; type: functional, cell-based; settings: U2932, 72 h

Structure (SMILES)	pIC50 [1]	IC50 at 72 h [2] [nM]	pIC50 (OCI-Ly10)	pIC50 (U2932)
CC1(C)Cc2cc(NC(=O)c3coc(-c4ccnc(N)c4)n3)c(-c3ccoc3)cc2O1	7.99	> 50000	6.40	5.61
CC1(C)Cc2cc(NC(=O)c3coc(-c4ccnc(N)c4)n3)c(N3CCC(CO)CC3)cc2O1	8.68		6.47	
CC1(C)Cc2cc(NC(=O)c3cnn4cccnc34)c(N3CCOCC3)cc2O1	8.21			
Cc1ncc(-c2cc3c(cc2NC(=O)c2coc(-c4ccnc(N)c4)n2)CC(C)(C)O3)cn1	7.85	> 50000	6.08	5.29
CC1(C)Cc2cc(NC(=O)c3coc(-c4ccnc(N)c4)n3)c(N3CCC(CN)CC3)cc2O1	7.85			
CC1(C)Cc2cc(NC(=O)c3coc(N4CC[C@@H](N)C4)n3)c(N3CCC(CO)CC3)cc2O1	7.18			
CC1(C)Cc2cc(NC(=O)c3coc(-c4ccnc(N)c4)n3)c(-c3ccnc(C#N)c3)cc2O1	< 7.00			
CC1(C)Cc2cc(NC(=O)c3cccc(N4CC[C@@H](N)C4)n3)c(N3CCC(CO)CC3)cc2O1	< 7.00			
CC1(C)Cc2cc(NC(=O)c3cccc(-c4ccc(N)nc4)n3)c(N3CCC(CO)CC3)cc2O1	< 7.00			
CC1(C)Cc2cc(NC(=O)c3coc(-c4ccnc(N)c4)n3)c(N3CCOCC3)cc2O1	8.59	312	6.96	6.74
CC1(C)Cc2cc(NC(=O)c3coc(-c4ccnc(N)c4)n3)c(-c3ccnc(C(F)(F)F)c3)cc2O1	< 7.00			
CC1(C)Cc2cc(NC(=O)c3cccc(N4CCC[C@@H](N)C4)n3)c(N3CCC(CO)CC3)cc2O1	< 7.00			
CC1(C)Cc2cc(NC(=O)c3cnn4cccnc34)c(N3CCC(CO)CC3)cc2O1	8.54		4.91	
Cc1ccc(-c2cc3c(cc2NC(=O)c2coc(-c4ccnc(N)c4)n2)CC(C)(C)O3)cn1	7.89	> 50000	5.50	< 4.30
CC1(C)Cc2cc(NC(=O)c3coc(-c4ccnc(N)c4)n3)c(-c3cncnc3)cc2O1	7.90	4630	6.17	5.68
Cc1noc(C)c1-c1cc2c(cc1NC(=O)c1coc(-c3ccnc(N)c3)n1)CC(C)(C)O2	< 7.00			
CC(C)n1cc(-c2cc3c(cc2NC(=O)c2coc(-c4ccnc(N)c4)n2)CC(C)(C)O3)cn1	7.61			
COc1cc(-c2cc3c(cc2NC(=O)c2coc(-c4ccnc(N)c4)n2)CC(C)(C)O3)ccn1	7.64			

Continued, in another order:

pIC50 [1]	Structure (SMILES)	IC50 at 72 h [2] [nM]	pIC50 (OCI-Ly10)	pIC50 (U2932)
7.22	CC1(C)Cc2cc(NC(=O)c3coc(-c4ccnc(N)c4)n3)c(N3CCC(C(C)(C)O)CC3)cc2O1			
7.38	CC1(C)Cc2cc(NC(=O)c3coc(-c4ccnc(N)c4)n3)c(-c3ccc(C#N)nc3)cc2O1			
< 7.00	Cc1cc(-c2cc3c(cc2NC(=O)c2coc(-c4ccnc(N)c4)n2)CC(C)(C)O3)cc(C)n1			
7.60	CC1(C)Cc2cc(NC(=O)c3coc(-c4ccnc(N)c4)n3)c(-c3ccc(C(F)(F)F)nc3)cc2O1			
7.13	Cn1cc(-c2cccc(C(=O)Nc3cc4c(cc3N3CCC(CO)CC3)OC(C)(C)C4)n2)cn1			
7.49	CC1(C)Cc2cc(NC(=O)c3coc(-c4ccnc(N)c4)n3)c(N3CCC(O)CC3)cc2O1			
7.55	CC1(C)Cc2cc(NC(=O)c3coc(-c4ccnc(N)c4)n3)c(N3CCC(C(N)=O)CC3)cc2O1			
7.73	CCn1cc(-c2cc3c(cc2NC(=O)c2coc(-c4ccnc(N)c4)n2)CC(C)(C)O3)cn1			
7.94	CC1(C)Cc2cc(NC(=O)c3coc(-c4ccnc(N)c4)n3)c(N3CCN(CC(N)=O)CC3)cc2O1			
< 7.00	CC1(C)Cc2cc(NC(=O)c3cccc(-c4ccnc(N)c4)n3)c(N3CCC(CO)CC3)cc2O1			
< 7.00	CC1(C)Cc2cc(NC(=O)c3coc(N4CCC[C@@H](N)C4)n3)c(N3CCC(CO)CC3)cc2O1			
7.57	COc1ccc(-c2cc3c(cc2NC(=O)c2coc(-c4ccnc(N)c4)n2)CC(C)(C)O3)cn1			
7.20	CC(=O)Nc1cc(-c2nc(C(=O)Nc3cc4c(cc3N3CCC(CO)CC3)OC(C)(C)C4)co2)ccn1			
< 7.00	Cc1cc(-c2nc(C(=O)Nc3cc4c(cc3N3CCC(CO)CC3)OC(C)(C)C4)co2)ccn1			
7.52	Cc1cc(-c2cc3c(cc2NC(=O)c2coc(-c4ccnc(N)c4)n2)CC(C)(C)O3)ccn1			
8.13	CC1(C)Cc2cc(NC(=O)c3coc(-c4ccnc(N)c4)n3)c(N3CCN(CCO)CC3)cc2O1			
7.66	CC1(C)Cc2cc(NC(=O)c3coc(-c4ccncc4)n3)c(N3CCC(CO)CC3)cc2O1			
